According to PubChem BioAssay AID248 (DTP/NCI, 2004):
“And” between values parts separate entries of the source, which are not always exact repeats. Identical values can stand only once. Inconclusive results and toxic doses are left out. Cut-off read from the data, not from the text of the source: active = T/C of 150% or more; inactive = T/C below 125%.

System: L1210 leukemia ip in BDF1 mice, survival T/C
Test: NCI In Vivo Anticancer Drug Screen. Data for tumor model L1210 Leukemia (intraperitoneal) in B6D2F1 (BDF1) mice
Settings: endpoint: mean survival time, higher = longer survival
Method in brief: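 Value reflects the ratio of survival in compound-treated mice to survival in vehicle-treated controls, with both groups carrying the same transplanted tumor.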

[1] = dose: 100.0 mg/kg/injection, schedule: Q01DX009 (ip), vehicle: Klucel (hydroxypropylcellulose) (HPC)
[2] = dose: 200.0 mg/kg/injection, schedule: Q01DX009 (ip), vehicle: Klucel (hydroxypropylcellulose) (HPC)
[3] = dose: 400.0 mg/kg/injection, schedule: Q01DX009 (ip), vehicle: Klucel (hydroxypropylcellulose) (HPC)
[4] = dose: 100.0 mg/kg/injection, schedule: Q01DX001 (ip), vehicle: saline
[5] = dose: 200.0 mg/kg/injection, schedule: Q01DX001 (ip), vehicle: saline
[6] = dose: 400.0 mg/kg/injection, schedule: Q01DX001 (ip), vehicle: saline
[7] = dose: 75.0 mg/kg/injection, schedule: Q01DX001 (ip), vehicle: saline
[8] = dose: 100.0 mg/kg/injection, schedule: Q04DX003 (ip), vehicle: Klucel (hydroxypropylcellulose) (HPC)
[9] = dose: 200.0 mg/kg/injection, schedule: Q04DX003 (ip), vehicle: Klucel (hydroxypropylcellulose) (HPC)
[10] = dose: 400.0 mg/kg/injection, schedule: Q04DX003 (ip), vehicle: Klucel (hydroxypropylcellulose) (HPC)
[11] = dose: 50.0 mg/kg/injection, schedule: Q01DX009 (ip), vehicle: Klucel (hydroxypropylcellulose) (HPC)

Measured: T/C

c1cc(OCC2CO2)ccc1OCC1CO1 (configuration not stated)
inactive: dose: 100.0 mg/kg/injection, schedule: Q01DX001 (ip), vehicle: other 115 % of control | dose: 200.0 mg/kg/injection, schedule: Q01DX001 (ip), vehicle: other 124 % of control | dose: 400.0 mg/kg/injection, schedule: Q01DX001 (ip), vehicle: other 121 % of control

COC1c2cnc(C)n2C=CN1C(C)=O (configuration not stated)
inactive: dose: 25.0 mg/kg/injection, schedule: Q01DX009 (ip), vehicle: saline 102 % of control | dose: 50.0 mg/kg/injection, schedule: Q01DX009 (ip), vehicle: saline 100 % of control | dose: 100.0 mg/kg/injection, schedule: Q01DX009 (ip), vehicle: saline 91 % of control | dose: 100.0 mg/kg/injection, schedule: Q04DX003 (ip), vehicle: saline 108 % of control | dose: 200.0 mg/kg/injection, schedule: Q04DX003 (ip), vehicle: saline 98 % of control

c1ccc2cc3sccc3cc2c1
inactive: [1] 96 % of control | [2] 95 % of control | [3] 93 % of control

C=COC(=O)N1CCCC1C(=O)O (configuration not stated)
inactive: [4] 92 % of control | [5] 94 % of control | [6] 90 % of control

CCC[N+](C)(C)C1CCCCC1
inactive: [7] 96 % of control and 94 % of control

NC(CC1C=CC=CC1)C(=O)O (configuration not stated)
inactive: dose: 50.0 mg/kg/injection, schedule: Q01DX001 (ip), vehicle: saline 108 % of control | [4] 102 % of control | [5] 98 % of control | [6] 96 % of control

CN(C)c1ccc(CC2Cc3ccccc3C2=O)cc1 (configuration not stated)
inactive: dose: 100.0 mg/kg/injection, schedule: Q01DX009 (ip), vehicle: other 96 % of control | [8] 117 % of control | dose: 200.0 mg/kg/injection, schedule: Q01DX009 (ip), vehicle: other 89 % of control | [9] 103 % of control | dose: 400.0 mg/kg/injection, schedule: Q01DX009 (ip), vehicle: other 91 % of control | [10] 98 % of control

CCOC(=O)CCc1c(C(=O)OCC)[nH]c(C)c1C(=O)O
inactive: [8] 95 % of control | [9] 98 % of control | [10] 97 % of control

Cc1cc(S(=O)(=O)F)cc(Cl)c1S
inactive: dose: 25.0 mg/kg/injection, schedule: Q04DX002 (ip), vehicle: saline with Tween-80 99 % of control | dose: 50.0 mg/kg/injection, schedule: Q04DX002 (ip), vehicle: saline with Tween-80 92 % of control

CCNC(=O)N1CCN(c2ccc(Cl)cc2)CC1
inactive: dose: 40.0 mg/kg/injection, schedule: Q04DX003 (ip), vehicle: saline 101 % of control | [7] 97 % of control | dose: 75.0 mg/kg/injection, schedule: Q04DX003 (ip), vehicle: saline 98 % of control | dose: 150.0 mg/kg/injection, schedule: Q01DX001 (ip), vehicle: saline 101 % of control | dose: 150.0 mg/kg/injection, schedule: Q04DX003 (ip), vehicle: saline 95 % of control

BrC1(Br)C2CCCCC21 (configuration not stated)
inactive: dose: 100.0 mg/kg/injection, schedule: Q04DX003 (ip), vehicle: acetone 90 % of control | dose: 200.0 mg/kg/injection, schedule: Q04DX003 (ip), vehicle: acetone 98 % of control and 90 % of control

CCCCNc1nnc(N)s1
inactive: dose: 100.0 mg/kg/injection, schedule: Q04DX002 (ip), vehicle: saline with Tween-80 98 % of control | dose: 200.0 mg/kg/injection, schedule: Q04DX002 (ip), vehicle: saline with Tween-80 98 % of control

CC(=O)C1C=NCC(C)(C)N=CC(C(C)=O)C(C)=NCCCN=C1C.[Ni] (configuration not stated)
inactive: dose: 12.5 mg/kg/injection, schedule: Q01DX009 (ip), vehicle: Klucel (hydroxypropylcellulose) (HPC) 95 % of control | dose: 12.5 mg/kg/injection, schedule: Q04DX003 (ip), vehicle: Klucel (hydroxypropylcellulose) (HPC) 96 % of control | dose: 25.0 mg/kg/injection, schedule: Q01DX009 (ip), vehicle: Klucel (hydroxypropylcellulose) (HPC) 100 % of control | dose: 25.0 mg/kg/injection, schedule: Q04DX003 (ip), vehicle: Klucel (hydroxypropylcellulose) (HPC) 91 % of control | [11] 97 % of control | dose: 50.0 mg/kg/injection, schedule: Q04DX003 (ip), vehicle: Klucel (hydroxypropylcellulose) (HPC) 102 % of control

O=C(OC1CC2CCC1CC2)c1ccc([N+](=O)[O-])cc1 (configuration not stated)
inactive: [4] 97 % of control | [5] 95 % of control | [6] 92 % of control

O=[N+]([O-])c1ccc(C(O)CC(O)(C(F)(F)F)C(F)(F)F)cc1 (configuration not stated)
inactive: [1] 93 % of control | [8] 94 % of control | [2] 94 % of control | [9] 91 % of control | [3] 97 % of control | [10] 95 % of control

CN(N=O)c1ccc(N(C)N=O)cc1
inactive: [11] 100 % of control | [1] 97 % of control | [8] 96 % of control | [2] 102 % of control | [9] 93 % of control | [3] 92 % of control | [10] 96 % of control

CS(=O)(=O)OCCN(CCOS(C)(=O)=O)c1cccc([N+](=O)[O-])c1
inactive: dose: 1.0 mg/kg/injection, schedule: Q01DX001 (ip), vehicle: saline 101 % of control | dose: 2.0 mg/kg/injection, schedule: Q01DX001 (ip), vehicle: saline 101 % of control | dose: 4.0 mg/kg/injection, schedule: Q01DX001 (ip), vehicle: saline 101 % of control | dose: 8.0 mg/kg/injection, schedule: Q01DX001 (ip), vehicle: saline 102 % of control | dose: 152.0 mg/kg/injection, schedule: Q01DX001 (ip), vehicle: saline 113 % of control | dose: 228.0 mg/kg/injection, schedule: Q01DX015 (ip), vehicle: saline 118 % of control | dose: 342.0 mg/kg/injection, schedule: Q01DX001 (ip), vehicle: saline 95 % of control | dose: 342.0 mg/kg/injection, schedule: Q01DX015 (ip), vehicle: saline 92 % of control | dose: 1024.0 mg/kg/injection, schedule: Q01DX001 (ip), vehicle: saline 102 % of control

O=C(CC(=O)c1ccccc1)Nc1ccccc1
inactive: dose: 100.0 mg/kg/injection, schedule: Q01DX001 (ip), vehicle: gum acacia 103 % of control and 104 % of control | dose: 100.0 mg/kg/injection, schedule: Q01DX009 (ip), vehicle: gum acacia 95 % of control and 104 % of control | dose: 100.0 mg/kg/injection, schedule: Q04DX002 (ip), vehicle: gum acacia 100 % of control and 88 % of control | dose: 100.0 mg/kg/injection, schedule: Q04DX003 (ip), vehicle: gum acacia 96 % of control and 91 % of control | dose: 200.0 mg/kg/injection, schedule: Q01DX001 (ip), vehicle: gum acacia 96 % of control and 97 % of control | dose: 200.0 mg/kg/injection, schedule: Q01DX009 (ip), vehicle: gum acacia 92 % of control | dose: 200.0 mg/kg/injection, schedule: Q04DX002 (ip), vehicle: gum acacia 98 % of control and 90 % of control | dose: 200.0 mg/kg/injection, schedule: Q04DX003 (ip), vehicle: gum acacia 96 % of control and 88 % of control | dose: 400.0 mg/kg/injection, schedule: Q01DX001 (ip), vehicle: gum acacia 92 % of control and 93 % of control | dose: 400.0 mg/kg/injection, schedule: Q01DX009 (ip), vehicle: gum acacia 102 % of control | dose: 400.0 mg/kg/injection, schedule: Q04DX002 (ip), vehicle: gum acacia 94 % of control and 91 % of control | dose: 400.0 mg/kg/injection, schedule: Q04DX003 (ip), vehicle: gum acacia 93 % of control and 94 % of control

O=c1c2c3ccccc3c(=O)c=2c2ccccc12
inactive: dose: 100.0 mg/kg/injection, schedule: Q01DX001 (ip), vehicle: Klucel (hydroxypropylcellulose) (HPC) 98 % of control | dose: 200.0 mg/kg/injection, schedule: Q01DX001 (ip), vehicle: Klucel (hydroxypropylcellulose) (HPC) 103 % of control

CSc1ccc(NC(=S)NCCc2ccccc2)cc1
inactive: [1] 114 % of control | [2] 97 % of control | [3] 102 % of control
